According to PMC12212627, “Machine Learning-Based Virtual Screening of Antibacterial Agents against Methicillin-Susceptible and Resistant Staphylococcus aureus” (Journal of Chemical Information and Modeling, 2024):

Legend:
[1] = tested on: E. coli (ATCC 35218), TEM-1 β-lactamase producing strain; assay: Broth microdilution (CLSI): screening at 100 μM and MIC, E. coli; format: cell-based; conditions: at 100 uM, Table S4
Procedure: (§1) E. coli (ATCC n° […]) – a TEM-1 β-lactamase producing strain, S. aureus (ATCC n° 29213) – herein referred to as MSSA, MRSA (ATCC n° 43300), and two clinical strains of MRSA (n° 5749 and 6154) were used in the biological assays. The antibacterial activity and minimal inhibitory concentration (MIC) of the screened compounds were evaluated with the broth microdilution method in 96-well microplates, according to the Clinical and Laboratory Standards Institute (CLSI) protocol. Initially, compounds were evaluated in a screening assay to identify promising hits. The compounds were dissolved in dimethyl sulfoxide (DMSO) and then diluted in Mueller Hinton broth (MHB; Oxoid, Thermo Scientific, U.K.) to a concentration of 200 μM. After the addition of 100 μL to each well, the same volume of bacterial suspension containing 10^5 CFU/mL was added to each of the previous solutions, resulting in a final compound concentration of 100 μM. A viability control (bacterial suspension only), inhibition controls (MHB containing five times the MIC of penicillin G for MSSA, vancomycin for MRSA strains, and streptomycin for E. coli), a sterility control (medium only), and a vehicle control (DMSO 2% v/v) were included in each assay microplate. After 24 h of incubation at 37 °C, the microplates were visually inspected for inhibition of bacterial growth, and the absorbance at 600 nm of each well was read using a microplate reader spectrophotometer (VersaMax, Molecular Devices, CA). The percentage of growth inhibition was calculated as the percentage of growth reduction compared with the vehicle control. Wells showing no visual bacterial growth (no turbidity) were considered hits. The MIC of the promising compounds in the initial screening were tested as previously described, with a serial dilution of each compound (100–1.56 μM). All conditions were tested in triplicate from at least three independent assays.

[2] = tested on: clinical strain of MRSA n° 5749; assay: Broth microdilution (CLSI): screening at 100 μM and MIC, MRSA clinical strain 5749; format: cell-based, Staphylococcus aureus; conditions: at 100 uM, Table S4
Procedure: as §1

[3] = tested on: MRSA (ATCC n° 43300); assay: Broth microdilution (CLSI): screening at 100 μM and MIC, MRSA reference strain; format: cell-based, Staphylococcus aureus; conditions: at 100 uM, Table S4
Procedure: as §1

[4] = tested on: S. aureus (ATCC n° 29213), MSSA; assay: Broth microdilution (CLSI): screening at 100 μM and MIC, MSSA; format: cell-based, Staphylococcus aureus; conditions: at 100 uM, Table S4
Procedure: as §1

[5] = tested on: MSSA and MRSA strains; assay: Broth microdilution, results summed up over MSSA and MRSA strains; format: cell-based, Staphylococcus aureus; conditions: tested compounds of Supporting Table S4, 100 μM
Procedure: as §1

[6] = tested on: clinical strain of MRSA n° 6154; assay: Broth microdilution (CLSI): screening at 100 μM and MIC, MRSA clinical strain 6154; format: cell-based, Staphylococcus aureus; conditions: at 100 uM, Table S4
Procedure: as §1

Row | Structure (SMILES) | Percentage of growth inhibition E. coli (ATCC 35218) [1] | Percentage of growth inhibition MRSA (5749) [2] | Percentage of growth inhibition MRSA (ATCC 43300) [3] | Percentage of growth inhibition MSSA (ATCC 29123) [4] | antibacterial activity (in words) [5] | Percentage of growth inhibition MRSA (6154) [6]
1 | O=C1C=C(OCc2cn(-c3ccccc3)nn2)C(=O)c2ccccc21 [S12] | 0% | 0% | 0% | 0% | no antibacterial activity | 0%
2 | CC1(C)OCC(CO)N1C(=O)OCc1ccccc1 (centres unmarked) [S13] | 0% | 0% | 0% | 0% | – | 0%
3 | O=C(C=Cc1ccccc1)NC(CO)COc1ccc([N+](=O)[O-])cc1 (centres unmarked) [S14] | 0% | 0% | 0% | 0% | – | 0%
4 | O=C(CCc1ccccc1)ON1C(=O)CCC1=O [S16] | 0% | 0% | 0% | 0% | – | 0%
5 | OC(COc1cccc2ccccc12)COc1cccc2ccccc12 [S17] | 0% | 0% | 0% | 0% | – | 0%
6 | N#Cc1ccccc1OCC(O)COc1ccccc1C#N [S18] | 0% | 0% | 0% | 0% | – | 0%
7 | N#Cc1cccc(OCC(O)COc2cccc(C#N)c2)c1 [S19] | 0% | 0% | 0% | 0% | – | 0%
8 | O=C1C(O)=C(Cc2cn(C3OC(CO)C(O)C(O)C3O)nn2)C(=O)c2ccccc21 (centres unmarked) [S25] | 0% | 0% | 0% | 0% | – | 0%
9 | O=C1C(O)=C(Cc2cn(C3OC(CO)C(O)C(O)C3O)nn2)C(=O)c2ccccc21 (centres unmarked) [S26] | 0% | 0% | 0% | 0% | – | 0%
10 | CC(=O)NC1C(O)C(O)C(CO)OC1n1cc(CC2=C(O)C(=O)c3ccccc3C2=O)nn1 (centres unmarked) [S27] | 0% | 0% | 0% | 0% | – | 0%
11 | CC(C)=CCC1=C(NCC(=O)O)C(=O)c2ccccc2C1=O [S34] | 0% | 0% | 0% | 0% | – | 0%
12 | C#CCOC1=C(CC=C(C)C)C(=O)c2ccccc2C1=O [S35] | 0% | 0% | 0% | 0% | – | 0%
13 | O=C(NC(Cc1ccc(O)cc1)C(=O)O)OCc1ccccc1 (centres unmarked) [S42] | 0% | 0% | 0% | 0% | – | 0%
14 | NC(=O)CC(NC(=O)OCc1ccccc1)C(=O)O (centres unmarked) [S43] | 0% | 0% | 0% | 0% | – | 0%
15 | NCCNC(=O)c1cc2ccccc2[nH]1 [S45] | 0% | 0% | 0% | 0% | – | 0%
16 | OCCNCc1cc2ccccc2[nH]1 [S46] | 0% | 0% | 0% | 0% | – | 0%
17 | CCCNC(=O)c1cc2ccccc2[nH]1 [S47] | 0% | 0% | 0% | 0% | – | 0%
18 | O=C(NCCO)c1cc2ccccc2[nH]1 [S48] | 0% | 0% | 0% | 0% | – | 0%
19 | O=C(NCCCN1CCOCC1)c1cc2ccccc2[nH]1 [S49] | 0% | 0% | 0% | 0% | – | 0%
20 | O=c1cc(-c2ccc(O)c(O)c2)oc2c(C3OC(CO)C(O)C(O)C3O)c(O)cc(O)c12 (centres unmarked) [S54] | 0% | 0% | 0% | 0% | – | 0%
